Assays:
Alpha-glucosidase [1] = molecular target: T1, Alpha-glucosidase (Saccharomyces cerevisiae S288c, UniProt P53341+P38158+P07265); experiment: Inhibition of Saccharomyces cerevisiae alpha-glucosidase using nitrophenol-alpha-D-glucopyranoside (pNPG) as substrate incubated for 15 mins; format: protein assay
[2] = molecular target: T2, Alpha-glucosidase (Saccharomyces cerevisiae S288c) (UniProt P53341+P38158+P07265); experiment: Binding affinity to Saccharomyces cerevisiae alpha-glucosidase assessed as decrease in protein stability by measuring alpha-helix structure at 20 uM measured after 5 mins by CD spectrum assay (reference value: 84.50%); design: scale not given: the % may be the effect or the level left
Mus musculus [3] = experiment: Anti-diabetic activity against 16 hrs fasted male Kunming mouse assessed as AUC of postprandial blood glucose at 20 mg/kg, IG after 30 mins […] of sucrose administered and measured upto 2 hrs by sucrose tolerance test (reference value: 810.40 +/- 75.53 mM.min); format: functional, organism-based
[4] = molecular target: T2, Alpha-glucosidase (Saccharomyces cerevisiae S288c); experiment: Binding affinity to Saccharomyces cerevisiae alpha-glucosidase assessed as quenching constant value (Kq) by fluorescence quenching study; format: protein assay
CYP3A4 = experiment: Inhibition of CYP3A4 in rat liver microsomes assessed as remaining activity at 100 uM measured after 30 mins by LC-MS/MS analysis; format: ADME, Microsome; conditions: read-out: Activity
[5] = molecular target: T2, Alpha-glucosidase (Saccharomyces cerevisiae S288c); experiment: Binding affinity to Saccharomyces cerevisiae alpha-glucosidase assessed as decrease in protein stability by measuring random coil structure at 20 uM measured after 5 mins by CD spectrum assay (reference value: 6.20%); design: scale not given: the % may be the effect or the level left
CYP2C19 = experiment: Inhibition of CYP2C19 in rat liver microsomes assessed as remaining activity at 100 uM measured after 30 mins by LC-MS/MS analysis; format: ADME, Microsome; conditions: read-out: Activity
[6] = molecular target: T2, Alpha-glucosidase (Saccharomyces cerevisiae S288c); experiment: Binding affinity to Saccharomyces cerevisiae alpha-glucosidase assessed as decrease in protein stability by measuring alpha-helix structure at 5 uM measured after 5 mins by CD spectrum assay (reference value: 84.50%); design: scale not given: the % may be the effect or the level left
[7] = molecular target: T2, Alpha-glucosidase (Saccharomyces cerevisiae S288c); experiment: Binding affinity to Saccharomyces cerevisiae alpha-glucosidase assessed as decrease in fluorescence intensity at 0 to 45 uM by fluorescence quenching study relative to control; format: protein assay; design: scale not given: the % may be the effect or the level left; conditions: dose 0-45 µM
[8] = molecular target: T2, Alpha-glucosidase (Saccharomyces cerevisiae S288c); experiment: Binding affinity to Saccharomyces cerevisiae alpha-glucosidase assessed as decrease in protein stability by measuring beta-sheet structure at 20 uM measured after 5 mins by CD spectrum assay (reference value: 4.30%); design: scale not given: the % may be the effect or the level left
[9] = molecular target: T2, Alpha-glucosidase (Saccharomyces cerevisiae S288c); experiment: Binding affinity to Saccharomyces cerevisiae alpha-glucosidase assessed as decrease in protein stability by measuring random coil structure at 7.5 uM measured after 5 mins by CD spectrum assay (reference value: 6.20%); design: scale not given: the % may be the effect or the level left
[10] = molecular target: T2, Alpha-glucosidase (Saccharomyces cerevisiae S288c); experiment: Binding affinity to Saccharomyces cerevisiae alpha-glucosidase assessed as decrease in protein stability by measuring beta-sheet structure at 5 uM measured after 5 mins by CD spectrum assay (reference value: 4.30%); design: scale not given: the % may be the effect or the level left
[11] = molecular target: T2, Alpha-glucosidase (Saccharomyces cerevisiae S288c); experiment: Binding affinity to Saccharomyces cerevisiae alpha-glucosidase assessed as decrease in protein stability by measuring alpha-helix structure at 7.5 uM measured after 5 mins by CD spectrum assay (reference value: 84.50%); design: scale not given: the % may be the effect or the level left
Alpha-glucosidase [12] = molecular target: T1, Alpha-glucosidase; experiment: Competitive inhibition of Saccharomyces cerevisiae alpha-glucosidase using nitrophenol-alpha-D-glucopyranoside (pNPG) as substrate at 24 to 48 uM measured after 15 mins by Lineweaver-Burk plot analysis; format: protein assay
[13] = molecular target: T2, Alpha-glucosidase (Saccharomyces cerevisiae S288c); experiment: Binding affinity to Saccharomyces cerevisiae alpha-glucosidase assessed as decrease in protein stability by measuring random coil structure at 15 uM measured after 5 mins by CD spectrum assay (reference value: 6.20%); design: scale not given: the % may be the effect or the level left
[14] = molecular target: T2, Alpha-glucosidase (Saccharomyces cerevisiae S288c); experiment: Binding affinity to Saccharomyces cerevisiae alpha-glucosidase assessed as decrease in protein stability by measuring beta-sheet structure at 7.5 uM measured after 5 mins by CD spectrum assay (reference value: 4.30%); design: scale not given: the % may be the effect or the level left
CYP1A2 = molecular target: T3, CYP1A2 (Rattus norvegicus, UniProt P04799); experiment: Inhibition of CYP1A2 in rat liver microsomes assessed as remaining activity at 100 uM measured after 30 mins by LC-MS/MS analysis; format: ADME, Microsome; conditions: read-out: Activity
T3 sequence (P04799 whole entry): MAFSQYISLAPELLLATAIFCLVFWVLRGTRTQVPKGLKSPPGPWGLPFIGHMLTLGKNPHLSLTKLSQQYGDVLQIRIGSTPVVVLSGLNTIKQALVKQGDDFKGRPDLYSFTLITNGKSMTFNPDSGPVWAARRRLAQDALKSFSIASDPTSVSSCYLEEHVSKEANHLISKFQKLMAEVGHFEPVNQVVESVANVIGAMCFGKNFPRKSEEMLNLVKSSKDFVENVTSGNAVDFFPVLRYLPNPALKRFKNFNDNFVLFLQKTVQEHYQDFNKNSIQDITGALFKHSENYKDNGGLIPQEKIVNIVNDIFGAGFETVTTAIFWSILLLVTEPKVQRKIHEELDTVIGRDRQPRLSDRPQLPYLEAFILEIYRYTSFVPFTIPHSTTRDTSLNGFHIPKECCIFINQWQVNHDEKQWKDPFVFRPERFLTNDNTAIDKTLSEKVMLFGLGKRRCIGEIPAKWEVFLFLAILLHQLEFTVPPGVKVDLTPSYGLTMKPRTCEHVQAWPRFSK

[15] = molecular target: T2, Alpha-glucosidase (Saccharomyces cerevisiae S288c); experiment: Binding affinity to Saccharomyces cerevisiae alpha-glucosidase assessed as decrease in protein stability by measuring beta-turn structure at 7.5 uM measured after 5 mins by CD spectrum assay (reference value: 6.80%); design: scale not given: the % may be the effect or the level left
[16] = molecular target: T2, Alpha-glucosidase (Saccharomyces cerevisiae S288c); experiment: Binding affinity to Saccharomyces cerevisiae alpha-glucosidase assessed as decrease in fluorescence intensity peak 2 by 3D spectra assay; format: protein assay; design: scale not given: the % may be the effect or the level left
[17] = molecular target: T2, Alpha-glucosidase (Saccharomyces cerevisiae S288c); experiment: Binding affinity to Saccharomyces cerevisiae alpha-glucosidase assessed as decrease in protein stability by measuring beta-turn structure at 10 uM measured after 5 mins by CD spectrum assay (reference value: 6.80%); design: scale not given: the % may be the effect or the level left
[18] = molecular target: T2, Alpha-glucosidase (Saccharomyces cerevisiae S288c); experiment: Binding affinity to Saccharomyces cerevisiae alpha-glucosidase assessed as decrease in protein stability by measuring beta-turn structure at 20 uM measured after 5 mins by CD spectrum assay (reference value: 6.80%); design: scale not given: the % may be the effect or the level left
[19] = molecular target: T2, Alpha-glucosidase (Saccharomyces cerevisiae S288c); experiment: Binding affinity to Saccharomyces cerevisiae alpha-glucosidase assessed as decrease in fluorescence intensity peak 1 by 3D spectra assay; format: protein assay; design: scale not given: the % may be the effect or the level left
CYP2D6 = experiment: Inhibition of CYP2D6 in rat liver microsomes assessed as remaining activity at 100 uM measured after 30 mins by LC-MS/MS analysis; format: ADME, Microsome; conditions: read-out: Activity
[20] = molecular target: T2, Alpha-glucosidase (Saccharomyces cerevisiae S288c); experiment: Binding affinity to Saccharomyces cerevisiae alpha-glucosidase assessed as decrease in protein stability by measuring random coil structure at 5 uM measured after 5 mins by CD spectrum assay (reference value: 6.20%); design: scale not given: the % may be the effect or the level left
[21] = molecular target: T2, Alpha-glucosidase (Saccharomyces cerevisiae S288c); experiment: Binding affinity to Saccharomyces cerevisiae alpha-glucosidase assessed as decrease in protein stability by measuring beta-sheet structure at 15 uM measured after 5 mins by CD spectrum assay (reference value: 4.30%); design: scale not given: the % may be the effect or the level left
Mus musculus [22] = experiment: Anti-diabetic activity against 16 hrs fasted male Kunming mouse assessed as decrease in postprandial blood glucose at 20 mg/kg, IG after 30 mins […] of sucrose administered and measured upto 2 hrs by sucrose tolerance test; format: functional; conditions: po
CYP2E1 = CYP2E1 (Rattus norvegicus, UniProt P05182); experiment: Inhibition of CYP2E1 in rat liver microsomes assessed as remaining activity at 100 uM measured after 30 mins by LC-MS/MS analysis; format: ADME, Microsome; conditions: read-out: Activity
CYP2B6 = experiment: Inhibition of CYP2B6 in rat liver microsomes assessed as remaining activity at 100 uM measured after 30 mins by LC-MS/MS analysis; format: ADME, Microsome; conditions: read-out: Activity
[23] = Cytotoxicity against human HEK293 cells assessed as cell viability at 150 uM measured after 24 hrs by MTT assay relative to control; format: toxicity, cell-based; conditions: read-out: Activity
[24] = molecular target: T2, Alpha-glucosidase (Saccharomyces cerevisiae S288c); experiment: Binding affinity to Saccharomyces cerevisiae alpha-glucosidase assessed as decrease in protein stability by measuring beta-turn structure at 15 uM measured after 5 mins by CD spectrum assay (reference value: 6.80%); design: scale not given: the % may be the effect or the level left
[25] = molecular target: T2, Alpha-glucosidase (Saccharomyces cerevisiae S288c); experiment: Binding affinity to Saccharomyces cerevisiae alpha-glucosidase assessed as decrease in protein stability by measuring alpha-helix structure at 10 uM measured after 5 mins by CD spectrum assay (reference value: 84.50%); design: scale not given: the % may be the effect or the level left
[26] = Cytotoxicity against human HEK293 cells assessed as cell viability at 200 uM measured after 24 hrs by MTT assay relative to control; format: toxicity, cell-based; conditions: read-out: Activity
[27] = Cytotoxicity against human HEK293 cells assessed as cell viability at 100 uM measured after 24 hrs by MTT assay relative to control; format: toxicity, cell-based; conditions: read-out: Activity
[28] = molecular target: T2, Alpha-glucosidase (Saccharomyces cerevisiae S288c); experiment: Binding affinity to Saccharomyces cerevisiae alpha-glucosidase assessed as quenching constant value (Ka) by fluorescence quenching study; format: protein assay
[29] = molecular target: T2, Alpha-glucosidase (Saccharomyces cerevisiae S288c); experiment: Binding affinity to Saccharomyces cerevisiae alpha-glucosidase assessed as decrease in protein stability by measuring beta-turn structure at 5 uM measured after 5 mins by CD spectrum assay (reference value: 6.80%); design: scale not given: the % may be the effect or the level left
[30] = molecular target: T2, Alpha-glucosidase (Saccharomyces cerevisiae S288c); experiment: Binding affinity to Saccharomyces cerevisiae alpha-glucosidase assessed as decrease in protein stability by measuring random coil structure at 10 uM measured after 5 mins by CD spectrum assay (reference value: 6.20%); design: scale not given: the % may be the effect or the level left
[31] = molecular target: T2, Alpha-glucosidase (Saccharomyces cerevisiae S288c); experiment: Binding affinity to Saccharomyces cerevisiae alpha-glucosidase assessed as decrease in protein stability by measuring beta-sheet structure at 10 uM measured after 5 mins by CD spectrum assay (reference value: 4.30%); design: scale not given: the % may be the effect or the level left
[32] = molecular target: T2, Alpha-glucosidase (Saccharomyces cerevisiae S288c); experiment: Binding affinity to Saccharomyces cerevisiae alpha-glucosidase assessed as quenching constant value (Ksv) by fluorescence quenching study; format: protein assay
[33] = molecular target: T2, Alpha-glucosidase (Saccharomyces cerevisiae S288c); experiment: Binding affinity to Saccharomyces cerevisiae alpha-glucosidase assessed as decrease in protein stability by measuring alpha-helix structure at 15 uM measured after 5 mins by CD spectrum assay (reference value: 84.50%); design: scale not given: the % may be the effect or the level left
CYP2C9 = experiment: Inhibition of CYP2C9 in rat liver microsomes assessed as remaining activity at 100 uM measured after 30 mins by LC-MS/MS analysis; format: ADME, Microsome; conditions: read-out: Activity
[34] = Cytotoxicity against human HEK293 cells assessed as cell viability at 50 uM measured after 24 hrs by MTT assay relative to control; format: toxicity, cell-based; conditions: read-out: Activity
Alpha-glucosidase [35] = molecular target: T1, Alpha-glucosidase; experiment: Non-competitive inhibition of Saccharomyces cerevisiae alpha-glucosidase using nitrophenol-alpha-D-glucopyranoside (pNPG) as substrate at 24 to 48 uM measured after 15 mins by Lineweaver-Burk plot analysis; format: protein assay

Sequence of CYP2E1 (P05182 whole entry): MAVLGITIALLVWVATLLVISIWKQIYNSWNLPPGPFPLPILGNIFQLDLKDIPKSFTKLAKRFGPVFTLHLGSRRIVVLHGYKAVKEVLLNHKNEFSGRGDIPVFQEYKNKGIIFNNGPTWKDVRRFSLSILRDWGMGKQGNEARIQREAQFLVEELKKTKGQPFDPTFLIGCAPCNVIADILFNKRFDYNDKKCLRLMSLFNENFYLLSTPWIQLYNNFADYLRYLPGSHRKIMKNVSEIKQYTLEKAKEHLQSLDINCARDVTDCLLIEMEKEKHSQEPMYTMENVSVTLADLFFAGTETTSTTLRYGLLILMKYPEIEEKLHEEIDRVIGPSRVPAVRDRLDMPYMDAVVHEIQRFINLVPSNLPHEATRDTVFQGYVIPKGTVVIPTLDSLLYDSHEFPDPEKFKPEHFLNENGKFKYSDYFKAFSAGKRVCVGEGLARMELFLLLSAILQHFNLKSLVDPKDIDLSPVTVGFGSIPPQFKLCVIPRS

## Oc1ccc(/C=N/Nc2nnc3n2N=C(c2ccccc2)CS3)c(O)c1
Alpha-glucosidase [1]
  IC50: 32.96 µM

## COc1cc(/C=N/Nc2nnc3n2N=C(c2ccccc2)CS3)cc(OC)c1O
[2]
  Activity: 57.3%
Mus musculus [3]
  AUC: 723 mM·min
[4]
  Kq: 1.57 10^13L/mol
CYP3A4
  activity at 0.5 h, 100 µM: 96.5%
[5]
  Activity: 21.2%
CYP2C19
  activity at 0.5 h, 100 µM: 75.4%
[6]
  Activity: 66.5%
[7]
  Activity: 87.7%
[8]
  Activity: 7%
[9]
  Activity: 17.5%
[10]
  Activity: 5.8%
[11]
  Activity: 63.4%
Alpha-glucosidase [12]
  Ki: 40.46 µM
[13]
  Activity: 19.7%
[14]
  Activity: 6.1%
CYP1A2
  activity at 0.5 h, 100 µM: 77.7%
[15]
  Activity: 10.6%
[16]
  Activity: 37.4%
[17]
  Activity: 10.8%
[18]
  Activity: 11.6%
[19]
  Activity: 31.9%
CYP2D6
  activity at 0.5 h, 100 µM: 92.3%
[20]
  Activity: 16%
[21]
  Activity: 6.6%
Mus musculus [22]
  inhibition in vivo at 20 mg/kg: 24.4%
CYP2E1
  activity at 0.5 h, 100 µM: 92.6%
CYP2B6
  activity at 0.5 h, 100 µM: 98.7%
[23]
  viability at 24 h, 150 µM: 81.2%
[24]
  Activity: 11.2%
[25]
  Activity: 62.7%
[26]
  viability at 24 h, 200 µM: 71.6%
[27]
  viability at 24 h, 100 µM: 90.5%
[28]
  Ka: 3.16 10^4L/mol
[29]
  Activity: 10.1%
[30]
  Activity: 18.4%
Alpha-glucosidase [1]
  IC50: 31.23 µM
[31]
  Activity: 6.3%
[32]
  KSV: 1.57 10^5L/mol
[33]
  Activity: 60.2%
CYP2C9
  activity at 0.5 h, 100 µM: 90.7%
[34]
  viability at 24 h, 50 µM: 100%
Alpha-glucosidase [35]
  Ki: 87.56 µM
